Patent US8729017B2 (priority 2011, dated 2014)
Where two headings read alike, the source gives them in different places. Numbered stars: 1 amine (or outer) side, 2 acyl side, 3 side chain; on linkers, the order of the positions; unused ones are H or OH. Square brackets hold non-standard residues; d marks the D form. Side chains are listed from the residue outwards. Peptide text beside a SMILES is read from it. * marks the point of attachment. γGlu = O=C(O)[C@H](CCC(=O)[*:2])N[*:1]; Palmitoyl = CCCCCCCCCCCCCCCC(=O)*; Aib = CC(C)(N)C(=O)O

Columns and labels:
Assay type in all cases: cell-based
glucagon receptor = biological target: T1, glucagon receptor (Homo sapiens, UniProt P47871); experiment: cAMP induction, firefly luciferase reporter assay in HEK293 cells co-transfected with the glucagon receptor
T1 construct: expressed in transfected cells; host or cells: HEK293
T1 sequence (P47871 26-477, species assumed): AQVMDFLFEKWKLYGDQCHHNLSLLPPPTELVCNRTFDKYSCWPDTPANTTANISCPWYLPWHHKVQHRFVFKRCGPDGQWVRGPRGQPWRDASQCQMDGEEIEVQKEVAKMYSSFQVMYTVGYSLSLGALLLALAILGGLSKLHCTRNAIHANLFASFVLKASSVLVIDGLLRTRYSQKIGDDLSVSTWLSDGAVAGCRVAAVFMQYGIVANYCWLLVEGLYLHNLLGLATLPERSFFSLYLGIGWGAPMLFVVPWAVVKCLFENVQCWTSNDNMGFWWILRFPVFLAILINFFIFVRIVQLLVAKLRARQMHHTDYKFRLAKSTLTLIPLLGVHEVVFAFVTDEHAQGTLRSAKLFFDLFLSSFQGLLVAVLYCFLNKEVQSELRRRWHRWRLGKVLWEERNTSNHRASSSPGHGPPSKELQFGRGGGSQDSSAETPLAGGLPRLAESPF
Method: (§1) The ability of each peptide to induce cAMP was measured in a firefly luciferase-based reporter assay. […] At the end of the incubation, 100 μL of LucLite luminescence substrate reagent (Perkin Elmer, Wellesley, Mass.) were added to each well. […] In some instances, the in vitro agonist activity at the GIP receptor was also tested.

GLP-1 receptor = biological target: T2, GLP-1 receptor (Homo sapiens, UniProt P43220); experiment: cAMP induction, firefly luciferase reporter assay in HEK293 cells co-transfected with the GLP-1 receptor
T2 construct: expressed in transfected cells; host or cells: HEK293
T2 sequence (P43220 24-463): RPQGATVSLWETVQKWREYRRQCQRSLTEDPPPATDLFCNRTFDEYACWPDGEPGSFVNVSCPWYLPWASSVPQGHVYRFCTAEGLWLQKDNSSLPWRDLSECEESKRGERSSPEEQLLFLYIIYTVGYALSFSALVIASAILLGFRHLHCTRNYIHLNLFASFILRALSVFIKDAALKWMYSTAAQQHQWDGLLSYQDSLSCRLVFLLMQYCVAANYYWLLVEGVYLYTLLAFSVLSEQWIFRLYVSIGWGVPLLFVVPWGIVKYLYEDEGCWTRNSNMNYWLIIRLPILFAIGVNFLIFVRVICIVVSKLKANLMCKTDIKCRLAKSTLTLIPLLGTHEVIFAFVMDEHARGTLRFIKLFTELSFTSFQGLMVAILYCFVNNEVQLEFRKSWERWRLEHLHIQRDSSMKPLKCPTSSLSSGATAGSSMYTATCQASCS
Method: as §1

GIP receptor = biological target: T3, GIP receptor (Homo sapiens, UniProt P48546); experiment: in vitro agonist activity at the GIP receptor (cAMP luciferase reporter, HEK293 cells)
T3 construct: expressed in transfected cells; host or cells: HEK293
T3 sequence (P48546 22-466): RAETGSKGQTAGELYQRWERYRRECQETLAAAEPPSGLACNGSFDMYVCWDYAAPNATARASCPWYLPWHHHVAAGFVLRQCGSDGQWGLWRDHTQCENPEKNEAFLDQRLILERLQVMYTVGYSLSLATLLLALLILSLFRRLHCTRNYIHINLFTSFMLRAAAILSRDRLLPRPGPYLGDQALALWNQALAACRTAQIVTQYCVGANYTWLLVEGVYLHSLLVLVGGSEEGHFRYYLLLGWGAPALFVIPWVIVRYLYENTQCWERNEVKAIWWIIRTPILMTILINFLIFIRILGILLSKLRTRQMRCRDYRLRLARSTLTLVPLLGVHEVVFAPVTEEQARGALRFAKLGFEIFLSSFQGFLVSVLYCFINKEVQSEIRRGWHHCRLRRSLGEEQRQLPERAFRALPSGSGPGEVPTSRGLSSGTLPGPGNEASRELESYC
Method: as §1, with “It is understood that a lower EC50 indicates higher activity or potency at the receptor. […] The” for “The”

[1] = HEK293 cells, cAMP-responsive luciferase reporter, 5 hours incubation
[2] = in vitro agonist activity, read-out: EC50 (nM) at GIP receptor

Row | Compound | EC50 (glucagon receptor; [1]) [pM] | EC50 (GLP-1 receptor; [1]) [pM] | EC50 (GIP receptor; [2]) [nM] | EC50 (glucagon receptor) [pM] | EC50 (GLP-1 receptor) [pM] | EC50 (GIP receptor) [nM]
1 | CCCCCCCCCCCCCCCC(=O)N[C@@H](CCC(=O)N[C@@H](CCC(=O)NCCCC[C@H](NC(=O)[C@H](CC(=O)O)NC(=O)[C@H](CO)NC(=O)[C@@H](NC(=O)[C@H](Cc1ccccc1)NC(=O)[C@@H](NC(=O)CNC(=O)[C@H](CCC(N)=O)NC(=O)C(C)(C)NC(=O)[C@@H](N)Cc1c[nH]cn1)[C@@H](C)O)[C@@H](C)O)C(=O)N[C@@H](CO)C(=O)N[C@@H](CCCCN)C(=O)N[C@@H](Cc1ccc(O)cc1)C(=O)N[C@@H](CC(C)C)C(=O)N[C@@H](CC(=O)O)C(=O)NC(C)(C)C(=O)N[C@@H](CCCNC(=N)N)C(=O)N[C@@H](C)C(=O)N[C@@H](C)C(=O)N[C@@H](CCC(N)=O)C(=O)N[C@@H](CC(=O)O)C(=O)N[C@@H](Cc1ccccc1)C(=O)N[C@H](C(=O)N[C@@H](CCC(N)=O)C(=O)N[C@@H](Cc1c[nH]c2ccccc12)C(=O)N[C@@H](CC(C)C)C(=O)N[C@@H](CCSC)C(=O)N[C@@H](CC(=O)O)C(=O)N[C@H](C(=O)N[C@@H](CCCCN)C(=O)N[C@H](C)C(=O)O)[C@@H](C)O)C(C)C)C(=O)O)C(=O)O [compound 32] (H-H[Aib]QGTFTSDK([γGlu-γGlu-Palmitoyl])SKYLD[Aib]RAAQDFVQWLMDTK[dA]-OH) | 7 | 8 | 2.08 | – | – | –
2 | CCCCCCCCCCCCCCCC(=O)N[C@@H](CCC(=O)N[C@@H](CCC(=O)NCCCC[C@H](NC(=O)[C@H](CC(=O)O)NC(=O)[C@H](CO)NC(=O)[C@@H](NC(=O)[C@H](Cc1ccccc1)NC(=O)[C@@H](NC(=O)CNC(=O)[C@H](CCC(N)=O)NC(=O)C(C)(C)NC(=O)[C@@H](N)Cc1c[nH]cn1)[C@@H](C)O)[C@@H](C)O)C(=O)N[C@@H](CO)C(=O)N[C@@H](CCCCN)C(=O)N[C@@H](Cc1ccc(O)cc1)C(=O)N[C@@H](CC(C)C)C(=O)N[C@@H](CC(=O)O)C(=O)N[C@@H](CCC(=O)O)C(=O)N[C@@H](CCCNC(=N)N)C(=O)N[C@@H](C)C(=O)N[C@@H](C)C(=O)N[C@@H](CCC(N)=O)C(=O)N[C@@H](CC(=O)O)C(=O)N[C@@H](Cc1ccccc1)C(=O)N[C@H](C(=O)N[C@@H](CCC(N)=O)C(=O)N[C@@H](Cc1c[nH]c2ccccc12)C(=O)N[C@@H](CC(C)C)C(=O)N[C@@H](CCSC)C(=O)N[C@@H](CC(=O)O)C(=O)N[C@H](C(N)=O)[C@@H](C)O)C(C)C)C(=O)O)C(=O)O [compound 61] | 9 | 4 | 0.676 | – | – | –
3 | CCCCCCCCCCCCCCCC(=O)N[C@@H](CCC(=O)NCCCC[C@H](NC(=O)[C@H](CC(=O)O)NC(=O)[C@H](CO)NC(=O)[C@@H](NC(=O)[C@H](Cc1ccccc1)NC(=O)[C@@H](NC(=O)CNC(=O)[C@H](CCC(N)=O)NC(=O)[C@@H](C)NC(=O)[C@@H](N)Cc1cnc[nH]1)[C@@H](C)O)[C@@H](C)O)C(=O)N[C@@H](CO)C(=O)N[C@@H](CCCCN)C(=O)N[C@@H](Cc1ccc(O)cc1)C(=O)N[C@@H](CC(C)C)C(=O)N[C@@H](CC(=O)O)C(=O)N[C@@H](CCC(=O)O)C(=O)N[C@@H](CCCNC(=N)N)C(=O)N[C@@H](C)C(=O)N[C@@H](C)C(=O)N[C@@H](CCC(N)=O)C(=O)N[C@@H](CC(=O)O)C(=O)N[C@@H](Cc1ccccc1)C(=O)N[C@H](C(=O)N[C@@H](CCC(N)=O)C(=O)N[C@@H](Cc1c[nH]c2ccccc12)C(=O)N[C@@H](CC(C)C)C(=O)N[C@@H](CC(C)C)C(=O)N[C@@H](CC(=O)O)C(=O)N[C@H](C(N)=O)[C@@H](C)O)C(C)C)C(=O)O [compound 56] | – | – | – | 6 | 20 | 1.64

Further lines, with some results ahead:

Row | EC50 (glucagon receptor; [1]) [pM] | EC50 (GLP-1 receptor; [1]) [pM] | EC50 (GIP receptor; [2]) [nM] | Compound | EC50 (glucagon receptor) [pM] | EC50 (GLP-1 receptor) [pM] | EC50 (GIP receptor) [nM]
4 | 23 | 4 | 1.58 | CCCCCCCCCCCCCCCC(=O)N[C@@H](CCC(=O)N[C@@H](CCC(=O)NCCCC[C@H](NC(=O)[C@H](CC(=O)O)NC(=O)[C@H](CO)NC(=O)[C@@H](NC(=O)[C@H](Cc1ccccc1)NC(=O)[C@@H](NC(=O)CNC(=O)[C@H](CCC(N)=O)NC(=O)C(C)(C)NC(=O)[C@@H](N)Cc1c[nH]cn1)[C@@H](C)O)[C@@H](C)O)C(=O)N[C@@H](CO)C(=O)N[C@@H](CCCCN)C(=O)N[C@@H](Cc1ccc(O)cc1)C(=O)N[C@@H](CC(C)C)C(=O)N[C@@H](CC(=O)O)C(=O)NC(C)(C)C(=O)N[C@@H](CCCNC(=N)N)C(=O)N[C@@H](C)C(=O)N[C@@H](C)C(=O)N[C@@H](CCC(N)=O)C(=O)N[C@@H](CC(=O)O)C(=O)N[C@@H](Cc1ccccc1)C(=O)N[C@H](C(=O)N[C@@H](CCC(N)=O)C(=O)N[C@@H](Cc1c[nH]c2ccccc12)C(=O)N[C@@H](CC(C)C)C(=O)N[C@@H](CCSC)C(=O)N[C@@H](CCCCN)C(=O)NCC(=O)N[C@@H](CCCNC(=N)N)C(=O)NCC(N)=O)C(C)C)C(=O)O)C(=O)O [compound 23] (H-H[Aib]QGTFTSDK([γGlu-γGlu-Palmitoyl])SKYLD[Aib]RAAQDFVQWLMKGRG-NH2; N-terminus assumed) | – | – | –
5 | 90 | 25 | 35.7 | CCCCCCCCCCCCCCCC(=O)NCCCC[C@H](NC(=O)[C@H](CC(=O)O)NC(=O)[C@H](CO)NC(=O)[C@@H](NC(=O)[C@H](Cc1ccccc1)NC(=O)[C@@H](NC(=O)CNC(=O)[C@H](CCC(N)=O)NC(=O)C(C)(C)NC(=O)[C@@H](N)Cc1c[nH]cn1)[C@@H](C)O)[C@@H](C)O)C(=O)N[C@@H](CO)C(=O)N[C@@H](CCCCN)C(=O)N[C@@H](Cc1ccc(O)cc1)C(=O)N[C@@H](CC(C)C)C(=O)N[C@@H](CC(=O)O)C(=O)N[C@@H](CO)C(=O)N[C@@H](CCCNC(=N)N)C(=O)N[C@@H](CCCNC(=N)N)C(=O)N[C@@H](C)C(=O)NC(C)(C)C(=O)N[C@@H](CC(=O)O)C(=O)N[C@@H](Cc1ccccc1)C(=O)N[C@H](C(=O)N[C@@H](CCC(N)=O)C(=O)N[C@@H](Cc1c[nH]c2ccccc12)C(=O)N[C@@H](CC(C)C)C(=O)N[C@@H](CCSC)C(=O)N[C@@H](CC(N)=O)C(=O)N[C@H](C(N)=O)[C@@H](C)O)C(C)C [compound 58] (H-H[Aib]QGTFTSDK(Palmitoyl)SKYLDSRRA[Aib]DFVQWLMNT-NH2) | – | – | –
6 | 5 | 2 | 2.37 | CCCCCCCCCCCCCCCC(=O)N[C@@H](CCC(=O)N[C@@H](CCC(=O)NCCCC[C@H](NC(=O)[C@H](CC(=O)O)NC(=O)[C@H](CO)NC(=O)[C@@H](NC(=O)[C@H](Cc1ccccc1)NC(=O)[C@@H](NC(=O)CNC(=O)[C@H](CCC(N)=O)NC(=O)C(C)(C)NC(=O)[C@@H](N)Cc1c[nH]cn1)[C@@H](C)O)[C@@H](C)O)C(=O)N[C@@H](CO)C(=O)N[C@@H](CCCCN)C(=O)N[C@@H](Cc1ccc(O)cc1)C(=O)N[C@@H](CC(C)C)C(=O)N[C@@H](CC(=O)O)C(=O)NC(C)(C)C(=O)N[C@@H](CCCNC(=N)N)C(=O)N[C@@H](C)C(=O)N[C@@H](C)C(=O)N[C@@H](CCC(N)=O)C(=O)N[C@@H](CC(=O)O)C(=O)N[C@@H](Cc1ccccc1)C(=O)N[C@H](C(=O)N[C@@H](CCC(N)=O)C(=O)N[C@@H](Cc1c[nH]c2ccccc12)C(=O)N[C@@H](CC(C)C)C(=O)N[C@@H](CCSC)C(=O)N[C@@H](CC(=O)O)C(=O)NCC(=O)N[C@@H](CCCNC(=N)N)C(=O)NCC(N)=O)C(C)C)C(=O)O)C(=O)O [compound 22] (H-H[Aib]QGTFTSDK([γGlu-γGlu-Palmitoyl])SKYLD[Aib]RAAQDFVQWLMDGRG-NH2; N-terminus assumed) | – | – | –
7 | 28 | 3 | 0.47 | CCCCCCCCCCCCCCCC(=O)N[C@@H](CCC(=O)NCCCC[C@H](NC(=O)[C@H](CC(=O)O)NC(=O)[C@H](CO)NC(=O)[C@@H](NC(=O)[C@H](Cc1ccccc1)NC(=O)[C@@H](NC(=O)CNC(=O)[C@H](CCC(N)=O)NC(=O)C(C)(C)NC(=O)[C@@H](N)Cc1c[nH]cn1)[C@@H](C)O)[C@@H](C)O)C(=O)N[C@@H](CO)C(=O)N[C@@H](CCCCN)C(=O)N[C@@H](Cc1ccc(O)cc1)C(=O)N[C@@H](CC(C)C)C(=O)N[C@@H](CC(=O)O)C(=O)NC(C)(C)C(=O)N[C@@H](CCCNC(=N)N)C(=O)N[C@@H](C)C(=O)N[C@@H](C)C(=O)N[C@@H](CCC(N)=O)C(=O)N[C@@H](CC(=O)O)C(=O)N[C@@H](Cc1ccccc1)C(=O)N[C@H](C(=O)N[C@@H](CCC(N)=O)C(=O)N[C@@H](Cc1c[nH]c2ccccc12)C(=O)N[C@@H](CC(C)C)C(=O)N[C@@H](CCCCN)C(=O)N[C@@H](CC(=O)O)C(=O)NCC(=O)N[C@@H](CCCNC(=N)N)C(=O)NCC(N)=O)C(C)C)C(=O)O [compound 36] (H-H[Aib]QGTFTSDK([γGlu-Palmitoyl])SKYLD[Aib]RAAQDFVQWLKDGRG-NH2) | – | – | –
